Test results as given in patent publication US9493426B2, “Quinazolinone derivatives useful as FGFR kinase modulators” (priority 2013, dated 2016).
Where two headings read alike, the source gives them in different places.

Columns and labels:
[1] = target: T1, Ba/F3-KDR-transfected cells (Homo sapiens, UniProt P35968, cells depend on it, form not given); test: Ba/F3-KDR (minus IL3 or plus IL3) cellular proliferation assay; format: cell-based; settings: 24 hours, Alamar Blue
T1 construct: BAF3-KDR (MIN IL3 pIC50); other: minus IL3; 24 hours, Alamar Blue
T1 sequence (P35968 whole entry, looked up, change not shown): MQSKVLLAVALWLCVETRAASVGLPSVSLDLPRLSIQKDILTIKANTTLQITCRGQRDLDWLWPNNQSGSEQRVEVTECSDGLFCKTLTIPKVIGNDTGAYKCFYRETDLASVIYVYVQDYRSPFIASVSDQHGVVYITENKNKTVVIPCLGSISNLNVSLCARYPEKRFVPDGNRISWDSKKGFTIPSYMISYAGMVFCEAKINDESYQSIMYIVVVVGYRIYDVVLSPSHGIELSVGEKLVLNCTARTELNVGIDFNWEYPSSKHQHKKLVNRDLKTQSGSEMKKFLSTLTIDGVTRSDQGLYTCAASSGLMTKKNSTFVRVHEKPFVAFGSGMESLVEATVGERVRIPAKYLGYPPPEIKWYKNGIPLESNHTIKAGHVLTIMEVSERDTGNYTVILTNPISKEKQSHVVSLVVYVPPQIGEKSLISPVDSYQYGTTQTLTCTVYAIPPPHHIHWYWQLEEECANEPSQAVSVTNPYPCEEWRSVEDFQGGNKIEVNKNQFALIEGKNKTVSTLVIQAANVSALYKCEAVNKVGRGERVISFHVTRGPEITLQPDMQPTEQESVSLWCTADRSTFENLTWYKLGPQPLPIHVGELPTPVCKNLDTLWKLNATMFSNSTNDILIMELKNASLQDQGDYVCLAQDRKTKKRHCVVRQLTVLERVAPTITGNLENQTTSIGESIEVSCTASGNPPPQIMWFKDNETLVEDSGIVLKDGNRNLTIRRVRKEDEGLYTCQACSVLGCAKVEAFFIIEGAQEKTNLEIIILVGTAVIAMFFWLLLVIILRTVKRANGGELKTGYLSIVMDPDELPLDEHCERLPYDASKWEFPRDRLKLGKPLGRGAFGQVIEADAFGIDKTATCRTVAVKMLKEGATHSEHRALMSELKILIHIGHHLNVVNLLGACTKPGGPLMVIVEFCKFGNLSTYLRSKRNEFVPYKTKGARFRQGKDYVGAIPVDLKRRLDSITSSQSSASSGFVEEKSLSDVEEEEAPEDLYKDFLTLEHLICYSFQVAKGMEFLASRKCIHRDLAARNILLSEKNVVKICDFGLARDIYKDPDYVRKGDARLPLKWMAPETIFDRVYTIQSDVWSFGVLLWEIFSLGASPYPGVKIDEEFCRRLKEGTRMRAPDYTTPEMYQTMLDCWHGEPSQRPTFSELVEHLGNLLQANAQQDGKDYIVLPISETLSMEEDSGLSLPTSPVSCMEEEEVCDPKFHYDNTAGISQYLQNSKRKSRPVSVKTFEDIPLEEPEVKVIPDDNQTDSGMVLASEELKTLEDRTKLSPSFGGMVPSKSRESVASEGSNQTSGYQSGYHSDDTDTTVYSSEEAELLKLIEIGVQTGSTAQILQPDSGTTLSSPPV
Procedure: Ba/F3-KDR (Minus IL3 or Plus IL3) (Cellular Proliferation Assay)
(§1) In a 384 well plate, 100 nl of compound dilution in DMSO was sprayed before adding 50 μl cell culture medium (phenol red free RPMI-1640, 10% FBS, 2 mM L-Glutamine and 50 μg/ml Gentamycin) containing 20000 cells per well of Ba/F3-KDR-transfected cells. Cells were put in an incubator at 37° C. and 5% CO2. After 24 hours, 10 μl of Alamar Blue solution (0.5 mM K3Fe(CN)6, 0.5 mM K4Fe(CN)6, 0.15 mM Resazurin and 100 mM Phosphate Buffer) was added to the wells, incubated for 4 hours at 37° C. and 5% CO2 before RFU's (Relative Fluorescence Units) (ex. 540 nm., em. 590 nm.) were measured in a fluorescence plate reader.
(§2) In this assay, the inhibitory effect of different compound concentrations (range 10 μM to 0.1 nM) was determined and used to calculate an IC50 (M) and pIC50 (−log IC50) value. As a counterscreen the same experiment was performed in the presence of 10 ng/ml murine IL3.

[2] = target: T2, Ba/F3-FGFR3-transfected cells (Homo sapiens, UniProt P22607, cells depend on it, form not given); test: Ba/F3-FGFR3 (minus IL3 or plus IL3) cellular proliferation assay; format: cell-based; settings: 24 hours, Alamar Blue
T2 construct: BAF3-FGFR3 (MIN IL3 pIC50); other: minus IL3; 24 hours, Alamar Blue
Procedure: Ba/F3-FGFR3 (Minus IL3 or Plus IL3) (Cellular Proliferation Assay)
as §1, with “Ba/F3-FGFR3-transfected” for “Ba/F3-KDR-transfected”
as §2

FGFR1 (h) = FGFR1 (h) (Homo sapiens, UniProt P11362); test: FGFR1 (enzymatic assay), TR-FRET; format: biochemical
[3] = target: T3, Ba/F3-FGFR1-transfected cells (Homo sapiens, UniProt P11362); test: Ba/F3-FGFR1 (minus IL3 or plus IL3) cellular proliferation assay; format: cell-based; settings: 24 hours, Alamar Blue
T3 construct: other: minus IL3; 24 hours, Alamar Blue
T3 sequence (P11362 whole entry, change not shown): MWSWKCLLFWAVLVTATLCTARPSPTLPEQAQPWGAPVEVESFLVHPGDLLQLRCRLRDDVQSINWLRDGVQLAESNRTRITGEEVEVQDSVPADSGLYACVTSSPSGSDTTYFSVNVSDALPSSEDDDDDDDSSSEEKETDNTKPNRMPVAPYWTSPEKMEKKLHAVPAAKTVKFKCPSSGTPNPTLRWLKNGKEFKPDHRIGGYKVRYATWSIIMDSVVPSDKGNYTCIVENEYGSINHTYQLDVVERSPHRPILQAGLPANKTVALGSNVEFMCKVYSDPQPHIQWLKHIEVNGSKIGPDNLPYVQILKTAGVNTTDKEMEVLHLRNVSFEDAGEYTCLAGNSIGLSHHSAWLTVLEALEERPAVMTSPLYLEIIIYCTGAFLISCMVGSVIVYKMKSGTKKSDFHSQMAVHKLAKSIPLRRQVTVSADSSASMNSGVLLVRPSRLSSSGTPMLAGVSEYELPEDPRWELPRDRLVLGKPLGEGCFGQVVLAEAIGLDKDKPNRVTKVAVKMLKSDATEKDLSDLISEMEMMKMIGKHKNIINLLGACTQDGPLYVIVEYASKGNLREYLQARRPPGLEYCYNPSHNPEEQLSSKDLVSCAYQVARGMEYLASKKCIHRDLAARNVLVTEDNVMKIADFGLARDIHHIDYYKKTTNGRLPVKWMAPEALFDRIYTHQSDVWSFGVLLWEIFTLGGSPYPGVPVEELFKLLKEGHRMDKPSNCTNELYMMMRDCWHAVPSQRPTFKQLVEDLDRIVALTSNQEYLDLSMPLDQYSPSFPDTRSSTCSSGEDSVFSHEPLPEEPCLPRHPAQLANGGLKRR
Procedure: Ba/F3-FGFR1 (Minus IL3 or Plus IL3) (Cellular Proliferation Assay)
as §1, with “Ba/F3-FGFR1-transfected” for “Ba/F3-KDR-transfected”
as §2

FGFR2 (h) = FGFR2 (h) (Homo sapiens, UniProt P21802); test: FGFR2 (enzymatic assay), TR-FRET; format: biochemical
FGFR2 (h), sequence (P21802 22-821): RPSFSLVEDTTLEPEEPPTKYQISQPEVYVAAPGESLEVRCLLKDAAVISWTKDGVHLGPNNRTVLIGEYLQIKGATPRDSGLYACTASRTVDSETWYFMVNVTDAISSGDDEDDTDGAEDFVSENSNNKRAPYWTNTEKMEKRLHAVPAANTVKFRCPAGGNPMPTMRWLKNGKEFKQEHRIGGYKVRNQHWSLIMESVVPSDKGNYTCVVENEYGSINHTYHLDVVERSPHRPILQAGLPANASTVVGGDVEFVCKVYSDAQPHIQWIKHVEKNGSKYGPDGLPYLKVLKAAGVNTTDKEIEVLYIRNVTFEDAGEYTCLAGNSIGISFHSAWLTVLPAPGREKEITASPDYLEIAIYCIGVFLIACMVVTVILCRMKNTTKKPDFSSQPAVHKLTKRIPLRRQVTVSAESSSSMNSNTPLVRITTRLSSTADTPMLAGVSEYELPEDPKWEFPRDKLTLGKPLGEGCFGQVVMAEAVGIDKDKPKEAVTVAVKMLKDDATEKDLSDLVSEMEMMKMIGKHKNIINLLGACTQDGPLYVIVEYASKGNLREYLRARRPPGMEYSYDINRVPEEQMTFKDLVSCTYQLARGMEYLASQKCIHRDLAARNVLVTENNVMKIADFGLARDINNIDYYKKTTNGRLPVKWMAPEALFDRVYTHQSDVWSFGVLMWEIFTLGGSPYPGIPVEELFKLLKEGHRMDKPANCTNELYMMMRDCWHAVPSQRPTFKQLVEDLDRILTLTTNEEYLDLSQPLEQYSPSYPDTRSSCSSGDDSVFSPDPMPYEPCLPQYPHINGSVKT

[4] = target: Ba/F3-FGFR4-transfected cells (Homo sapiens, UniProt P22455, cells depend on it, form not given); test: Ba/F3-FGFR4 cellular proliferation assay; format: cell-based; settings: 24 hours, Alamar Blue
Ba/F3-FGFR4-transfected cells, sequence (P22455 whole entry, looked up, change not shown): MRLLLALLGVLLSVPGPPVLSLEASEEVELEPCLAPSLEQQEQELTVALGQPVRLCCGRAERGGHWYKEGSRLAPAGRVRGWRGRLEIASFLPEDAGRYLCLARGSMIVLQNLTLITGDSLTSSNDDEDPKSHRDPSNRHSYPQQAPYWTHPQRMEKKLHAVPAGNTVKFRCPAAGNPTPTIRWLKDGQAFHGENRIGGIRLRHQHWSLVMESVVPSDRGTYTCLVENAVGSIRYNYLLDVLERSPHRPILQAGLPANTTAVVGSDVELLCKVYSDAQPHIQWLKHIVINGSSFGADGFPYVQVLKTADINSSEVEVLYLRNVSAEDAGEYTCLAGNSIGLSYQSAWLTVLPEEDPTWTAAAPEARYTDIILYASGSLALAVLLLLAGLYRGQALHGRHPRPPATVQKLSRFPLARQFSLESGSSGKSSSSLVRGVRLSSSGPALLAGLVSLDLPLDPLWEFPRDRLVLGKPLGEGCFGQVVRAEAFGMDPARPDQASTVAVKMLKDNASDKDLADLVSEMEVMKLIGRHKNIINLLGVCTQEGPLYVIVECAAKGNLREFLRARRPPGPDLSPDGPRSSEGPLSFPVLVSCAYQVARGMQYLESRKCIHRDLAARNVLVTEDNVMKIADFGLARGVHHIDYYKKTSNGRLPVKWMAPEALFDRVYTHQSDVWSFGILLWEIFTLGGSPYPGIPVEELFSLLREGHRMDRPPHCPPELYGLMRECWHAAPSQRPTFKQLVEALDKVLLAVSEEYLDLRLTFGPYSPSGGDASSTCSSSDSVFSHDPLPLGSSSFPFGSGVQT
Procedure: Ba/F3-FGFR4 (Cellular Proliferation Assay)
as §1, with “Ba/F3-FGFR4-transfected” for “Ba/F3-KDR-transfected”
In this assay, the inhibitory effect of different compound concentrations (range 10 μM to 0.1 nM) was determined and used to calculate an IC50 (M) and pIC50 (−log IC50) value.

FGFR3 (h) = FGFR3 (h) (Homo sapiens, UniProt P22607); test: FGFR3 (enzymatic assay), TR-FRET; format: biochemical
FGFR3 (h), sequence (P22607 23-806): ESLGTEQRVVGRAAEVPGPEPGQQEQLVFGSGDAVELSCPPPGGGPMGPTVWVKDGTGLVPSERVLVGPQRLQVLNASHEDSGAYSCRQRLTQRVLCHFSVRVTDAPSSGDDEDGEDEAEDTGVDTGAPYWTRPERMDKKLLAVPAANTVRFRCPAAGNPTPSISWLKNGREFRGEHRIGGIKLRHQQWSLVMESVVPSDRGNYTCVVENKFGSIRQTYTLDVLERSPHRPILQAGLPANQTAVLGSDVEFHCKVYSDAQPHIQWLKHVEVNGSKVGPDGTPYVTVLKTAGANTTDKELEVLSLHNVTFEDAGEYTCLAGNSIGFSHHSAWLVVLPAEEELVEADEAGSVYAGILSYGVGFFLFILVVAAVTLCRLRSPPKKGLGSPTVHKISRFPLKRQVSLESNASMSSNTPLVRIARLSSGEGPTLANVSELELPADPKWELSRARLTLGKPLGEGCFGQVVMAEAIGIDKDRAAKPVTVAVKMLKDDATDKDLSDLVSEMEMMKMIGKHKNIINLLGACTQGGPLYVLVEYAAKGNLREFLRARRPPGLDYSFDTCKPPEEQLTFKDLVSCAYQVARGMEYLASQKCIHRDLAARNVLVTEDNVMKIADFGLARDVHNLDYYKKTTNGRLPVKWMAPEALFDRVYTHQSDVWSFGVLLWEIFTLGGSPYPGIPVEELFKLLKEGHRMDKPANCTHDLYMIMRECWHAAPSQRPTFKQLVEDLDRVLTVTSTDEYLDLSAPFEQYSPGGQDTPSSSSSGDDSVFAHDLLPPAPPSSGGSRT

KDR (h) = KDR (h) (Homo sapiens, UniProt P35968); test: KDR (VEGFR2) (enzymatic assay), TR-FRET; format: biochemical; settings: 3 μM ATP; pIC50 = -log IC50 (M); read-out: VEGFR KDR pIC50 (converted)
Procedure: KDR (VEGFR2) (Enzymatic Assay)
In a final reaction volume of 30 μL, KDR (h) (150 ng/ml) was incubated with 50 mM HEPES pH 7.5, 6 mM MnCl2, 1 mM DTT, 0.1 mM Na3VO4, 0.01% Triton-X-100, 500 nM Btn-Flt3 and 3 μM ATP in the presence of compound (1% DMSO final). After incubation for 120 minutes at room temperature the reaction was stopped with 2.27 nM EU-anti P-Tyr, 7 mM EDTA, 31.25 nM SA-XL-665 and 0.02% BSA which was present for 60 minutes at room temperature. Time-Resolved Fluorescence Resonance Energy Transfer (TR-FRET) signal (ex340 nm. Em 620 nm, em 655 nm) was measured afterwards and results are expressed in RFU (Relative Fluorescence Units). In this assay, the inhibitory effect of different compound concentrations (range 10 μM to 0.1 nM) was determined and used to calculate an IC50 (M) and pIC50 (−log IC50) value.

FGFR4 (h) = FGFR4 (h) (Homo sapiens, UniProt P22455); test: FGFR4 (enzymatic assay), TR-FRET; format: biochemical; settings: 5 μM ATP; pIC50 = -log IC50 (M); read-out: FGFR 4 pIC50 (converted)
[5] = 0.4 μM ATP, pIC50 = -log IC50 (M), read-out: FGFR 2 pIC50 (converted)
[6] = 25 μM ATP, pIC50 = -log IC50 (M), read-out: FGFR3 pIC50 (converted)

Compound	BAF3-KDR (MIN IL3 pIC50) [1]	BAF3-FGFR3 (MIN IL3 pIC50) [2]	melting point [°C]	IC50 (FGFR1 (h)) [nM]	BAF3-FGFR1 (MIN IL3 pIC50) [3]	IC50 (FGFR2 (h); [5]) [M]	BAF3-FGFR4 (pIC50) [4]	IC50 (FGFR3 (h); [6]) [M]	IC50 (KDR (h)) [M]	IC50 (FGFR4 (h)) [M]	IC50 (FGFR3 (h)) [M]	IC50 (FGFR2 (h)) [M]
COc1cc(OC)c(F)c(N(CCO)c2ccc3ncn(-c4ccccc4)c(=O)c3c2)c1F [Compound 1]	~5	6.4	169	10	6.0	6.31e-09	5.6	6.31e-09	2.51e-07	3.98e-08	–	–
COc1cc(OC)c(F)c(N(CCNC(C)C)c2ccc3ncn(-c4ccccc4)c(=O)c3c2)c1F [Compound 2]	5.7	7.6	124	6.31	7.7	2.51e-08	6.3	2.51e-08	2.51e-07	3.98e-08	–	–
COc1cc(OC)c(F)c(N(Cc2ncc[nH]2)c2ccc3ncn(-c4ccccc4)c(=O)c3c2)c1F [Compound 4]	<5	6.2	–	15.8	6.1	1.26e-08	5.4	7.94e-09	> 1e-06	2.51e-08	–	–
COc1cc(OC)c(Cl)c(N(CCO)c2ccc3ncn(-c4ccccc4)c(=O)c3c2)c1Cl [Compound 5]	<5	5.3	251	63.1	5.5	3.98e-08	<5	2.51e-08	~1e-06	5.01e-07	–	–
COc1cc(OC)c(F)c(N(CCO)c2ccc3ncn(-c4ccccc4)c(=O)c3c2)c1 [Compound 6]	<5	5.5	183	79.4	5.5	5.01e-08	5.0	–	> 1e-06	3.16e-07	3.98e-08	–
COc1cc(OC)cc(N(CCO)c2ccc3ncn(-c4cnn(C)c4)c(=O)c3c2)c1 [Compound 8]	<5	5.6	185	50.1	5.4	2.51e-08	5.2	2e-08	7.94e-07	1.58e-07	–	–
COc1cc(OC)cc(N(CCNC(C)C)c2ccc3ncn(-c4cnn(C)c4)c(=O)c3c2)c1 [Compound 9]	5.2	~7.09	142	5.01	7.2	6.31e-09	6.2	1e-08	5.01e-07	5.01e-08	–	–
COc1cc(OC)c(Cl)c(N(CCO)c2ccc3ncn(-c4cnn(C)c4)c(=O)c3c2)c1Cl [Compound 10]	~5	6.3	223	12.6	6.2	1.58e-08	5.1	7.94e-09	5.01e-07	2e-07	–	–
COc1cc(OC)c(Cl)c(N(Cc2ncc[nH]2)c2ccc3ncn(-c4cnn(C)c4)c(=O)c3c2)c1Cl [Compound 13]	5.1	5.9	–	15.8	5.5	–	5.2	1.26e-08	2.51e-07	1.26e-07	–	1.58e-08
COc1cccc(C(=O)c2ccc3ncn(-c4cnn(C)c4)c(=O)c3c2)c1 [Compound 23]	<5	<5	–	> 1000	<5	> 1e-06	<5	> 1e-06	> 1e-06	> 1e-06	–	–
